Patent publication US6413974B1, “6,9,-disubstituted 2-[trans-(4-aminocyclohexyl) amino] purines” (Aventis Pharmaceuticals Inc., priority 1998, dated 2002)
Where “and” joins values, the source holds several entries; their conditions need not be identical. Identical values can stand only once. Counter-ions that a name gives are not always drawn. Like-named read-outs stand apart in the source and are kept apart here.

How the values were obtained:
Colo-205 = assay: In vitro tumor cell proliferation, Colo-205; assay type: cell-based, human; conditions: read-out: In vitro Tumor Cell Proliferation (IC50, μM) Colon Colo-205
Method in brief: (§1)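 Cells seeded overnight at 37° C, then exposed to drug 3 days, medium and drug renewed, plus 4 more days; TCA-fixed and sulforhodamine B stained. Alternatively CyQUANT read-out after 3 days' drug exposure, plates frozen at −80° C.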

cdk4/cyclin D1 = biological target: T1, cdk4/cyclin D1 (Homo sapiens, UniProt P11802); assay: Cyclin-dependent kinase 4 Assay; assay type: biochemical; conditions: cdk4/cyclin D1, GST-Rb substrate, 10 μM ATP, 30 min at 37° C.; read-out: CDK4 Inhibition IC50
T1 construct: made in house; host or cells: Sf9 insect cells (Bac-to-Bac baculovirus, pFastBac)
T1 sequence (P11802 whole entry): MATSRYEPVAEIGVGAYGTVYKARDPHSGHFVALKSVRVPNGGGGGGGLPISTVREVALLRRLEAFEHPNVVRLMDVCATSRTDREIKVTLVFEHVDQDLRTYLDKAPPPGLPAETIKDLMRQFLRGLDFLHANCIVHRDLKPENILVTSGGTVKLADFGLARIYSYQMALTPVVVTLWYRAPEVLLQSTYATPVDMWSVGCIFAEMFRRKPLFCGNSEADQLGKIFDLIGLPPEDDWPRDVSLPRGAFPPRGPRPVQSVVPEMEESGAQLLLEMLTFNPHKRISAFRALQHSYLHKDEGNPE
T1 sequence (P24385 whole entry partner): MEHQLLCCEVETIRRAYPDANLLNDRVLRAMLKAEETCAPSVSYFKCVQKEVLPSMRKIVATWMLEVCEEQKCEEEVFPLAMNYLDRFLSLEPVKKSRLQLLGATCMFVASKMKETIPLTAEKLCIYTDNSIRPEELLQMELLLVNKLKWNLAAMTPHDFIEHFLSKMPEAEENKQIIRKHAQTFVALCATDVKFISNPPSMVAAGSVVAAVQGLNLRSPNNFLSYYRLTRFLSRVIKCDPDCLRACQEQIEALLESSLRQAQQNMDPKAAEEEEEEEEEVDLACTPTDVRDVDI
Method in brief: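 Insect-cell lysate of coexpressed human cdk4/cyclin D1 (0.1 μg) phosphorylated bead-bound GST-Rb (0.5 μg) in 50 mM HEPES pH 7.5, 10 mM MgCl2, 1 mM EGTA for 30 min at 37 °C. Filters were washed with TNEN and scintillation-counted; IC50 values derived.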

MDA-MB-231 = assay: In vitro tumor cell proliferation, MDA-MB-231; assay type: cell-based, human; conditions: read-out: In vitro Tumor Cell Proliferation (IC50, μM) Breast MDA-MB-231
Method in brief: as §1

cdk2/cyclin E = biological target: T2, cdk2/cyclin E (Homo sapiens, UniProt P24941); assay: Cyclin-Dependent Kinase 2 Assay (cdk-2 inhibition); assay type: biochemical; conditions: GST-Rb substrate, 30 min at 30° C.
T2 construct: made in house; host or cells: insect cells (baculovirus co-infection)
Method in brief: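 GST-Rb bound to glutathione-Sepharose beads (0.5 μg/well) as substrate in 50 mM HEPES pH 7.5, 10 mM MgCl2, 1 mM EGTA. Recombinant cdk2/cyclin E at 0.1 μg per 100 μl, 30 min at 30 °C. Reaction stopped by filtration, TNEN washes, scintillation counting.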

A549 = assay: In vitro tumor cell proliferation, A549; assay type: cell-based, human; conditions: read-out: In vitro Tumor Cell Proliferation (IC50, μM) Lung A549
Method in brief: as §1

PC-3 = assay: In vitro tumor cell proliferation, PC-3; assay type: cell-based, human; conditions: read-out: In vitro Tumor Cell Proliferation (IC50, μM) Prostate PC-3
Method in brief: as §1

DMS-114 = assay: In vitro tumor cell proliferation, DMS-114; assay type: cell-based, human; conditions: read-out: In vitro Tumor Cell Proliferation (IC50, μM) Lung DMS-114
Method in brief: as §1

HT-29 = assay: In vitro tumor cell proliferation, HT-29; assay type: cell-based, human; conditions: read-out: In vitro Tumor Cell Proliferation (IC50, μM) Colon HT-29 (converted)
Method in brief: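 HT-29 human colon adenocarcinoma cells plated overnight at 37° C., then exposed to drug for 3 days, medium with fresh drug replaced for a further 4 days. Cells fixed with 10% TCA and stained with 0.4% sulforhodamine B; alternatively, CyQUANT read after 3 days of drug exposure.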

MDA-MB-435 = assay: In vitro tumor cell proliferation, MDA-MB-435; assay type: cell-based, human; conditions: read-out: In vitro Tumor Cell Proliferation (IC50, μM) Breast MDA-MB-435
Method in brief: as §1

DU 145 = assay: In vitro tumor cell proliferation, DU 145; assay type: cell-based, human; conditions: read-out: In vitro Tumor Cell Proliferation (IC50, μM) Prostate DUI45
Method in brief: as §1

[1] = Homo sapiens, COLO 205, values marked * (mark not explained)
[2] = values marked * (mark not explained), dihydrochloride
[3] = Homo sapiens, MDA-MB-231, values marked * (mark not explained)
[4] = Homo sapiens, A549, values marked * (mark not explained)
[5] = Homo sapiens, PC-3, values marked * (mark not explained)
[6] = Homo sapiens, DMS-114, values marked * (mark not explained)
[7] = Homo sapiens, HT-29, values marked * (mark not explained)
[8] = Homo sapiens, MDA-MB-435, values marked * (mark not explained)
[9] = Homo sapiens, DU-145, values marked * (mark not explained)

Row | Structure (SMILES) | IC50 (Colo-205; [1]) [µM] | IC50 (Colo-205; [2]) [µM] | IC50 (cdk4/cyclin D1) | IC50 (MDA-MB-231; [3]) [µM] | IC50 (cdk2/cyclin E) | IC50 (A549; [4]) [µM] | IC50 (A549; [2]) [µM] | IC50 (PC-3; [5]) [µM] | IC50 (PC-3; [2]) [µM] | IC50 (DMS-114; [6]) [µM] | IC50 (DMS-114; [2]) [µM] | IC50 (HT-29; [7]) [µM] | IC50 (MDA-MB-435; [8]) [µM] | IC50 (DU 145; [9]) [µM] | IC50 (MDA-MB-231; [2]) [µM] | IC50 (HT-29; [2]) [µM] | IC50 (DU 145; [2]) [µM] | IC50 (MDA-MB-435; [2]) [µM]
1 | CC(CCCC(C)(C)O)Nc1nc(N[C@H]2CC[C@H](N)CC2)nc2c1ncn2C1CCCC1 (relative stereo) [Example 54, 2-[Trans-(4-aminocyclohexyl)amino]-6-[(5-hydroxy-1,5-dimethylhexyl)amino]-9-cyclopentylpurine dihydrochloride] | 0.63 | 0.58 | 2 µM and 1.2 µM | 1 | 0.085 µM | 0.68 | 0.63 | 0.83 | 0.8 | 0.78 | 0.61 | 1 | 1.6 | 1.4 |  |  |  | 
2 | N[C@H]1CC[C@H](Nc2nc(NCc3ccncc3)c3ncn(C4CCCC4)c3n2)CC1 [Example 8, 2-[Trans-(4-aminocyclohexyl)amino]-6-[(4-pyridyl)methylamino]-9-cyclopentylpurine dihydrochloride] | 4.6 | 4.1 | 0.7 µM and 0.8 µM | 5.3 | 0.11 µM | 7.7 | 5.9 | 4.6 | 5.4 | 9.9 | 7.4 | 7.6 | 10 | 5.8 | 8.1 | 11 | 6.5 | 
3 | CCCCCCCCNc1nc(N[C@H]2CC[C@H](N)CC2)nc2c1ncn2C1CCCC1 [Example 20, 2-[Trans-(4-aminocyclohexyl)amino]-6-(octylamino)-9-cyclopentylpurine dihydrochloride] | 1.9 | 1.4 | 2.4 µM | 2.7 | 0.33 µM and 0.31 µM and 0.46 µM | 1.7 | 1 | 1.7 | 1.8 | 1.1 | 0.95 | 1.9 | 2.3 | 2.4 | 1.9 | 1.7 | 1.9 | 1.8
4 | N[C@H]1CC[C@H](Nc2nc(NCCCCc3ccccc3)c3ncn(C4CCCC4)c3n2)CC1 [Example 21, 2-[Trans-(4-aminocyclohexyl)amino]-6-(4-phenylbutylamino)-9-cyclopentylpurine dihydrochloride] | 0.51 | 0.78 | 1 µM | 0.8 | 0.039 µM and 0.091 µM | 0.5 |  | 0.6 | 0.8 | 0.7 | 0.6 | 0.7 | 1.3 | 0.4 | 0.9 | 0.8 | 0.7 | 1.2
5 | CCCCNc1nc(N[C@H]2CC[C@H](N)CC2)nc2c1ncn2C(C)C [Example 37, 2-[Trans-(4-aminocyclohexyl)amino]-6-[(butyl)amino]-9-(2-propyl)purine dihydrochloride] |  | 11 | 7 µM | 24 | 0.24 µM |  | 8.3 | 11 |  | 9.7 | 8 | 19 | 19 | > 20 |  |  | 10 | 16
6 | CCCNc1nc(N[C@H]2CC[C@H](N)CC2)nc2c1ncn2C1CCCC1 [Example 44, 2-[Trans-(4-aminocyclohexyl)amino]-6-(propylamino)-9-cyclopentylpurine dihydrochloride] | 0.58 | 0.4 | 0.25 µM and 0.37 µM and 0.16 µM | 0.8 | 0.009 µM and 0.011 µM | 0.63 | 0.47 | 0.52 | 0.47 | 0.44 | 0.53 | 0.69 | 0.85 | 0.5 | 0.6 | 0.65 | 0.6 | 

More lines, in order of falling IC50 (MDA-MB-231; [3]), values ahead:

Row | IC50 (Colo-205; [1]) [µM] | IC50 (Colo-205; [2]) [µM] | IC50 (cdk4/cyclin D1) | IC50 (MDA-MB-231; [3]) [µM] | IC50 (cdk2/cyclin E) | IC50 (A549; [4]) [µM] | IC50 (A549; [2]) [µM] | IC50 (PC-3; [5]) [µM] | IC50 (PC-3; [2]) [µM] | IC50 (DMS-114; [6]) [µM] | IC50 (DMS-114; [2]) [µM] | IC50 (HT-29; [7]) [µM] | IC50 (MDA-MB-435; [8]) [µM] | IC50 (DU 145; [9]) [µM] | IC50 (MDA-MB-231; [2]) [µM] | IC50 (HT-29; [2]) [µM] | IC50 (DU 145; [2]) [µM] | IC50 (MDA-MB-435; [2]) [µM] | Structure (SMILES)
7 | 4.3 | 4.2 | 2.1 µM and 1.1 µM and 0.7 µM | 5.2 | 0.089 µM | 7.3 | 6.4 | 4.2 | 4 | 7 | 4.8 | 7 | 6.7 | 6.7 | 5.6 | 6.1 | 7.2 | 7.2 | N[C@H]1CC[C@H](Nc2nc(NCCc3ccc(O)cc3)c3ncn(C4CCCC4)c3n2)CC1 [Example 55, 2-[Trans-(4-aminocyclohexyl)amino]-6-[(4-hydroxyphenyl)ethylamino]-9-cyclopentylpurine. dihydrochloride]
8 | 3.4 | 3.2 | 2.2 µM and 1.6 µM | 4.2 | 0.253 µM | 2.7 | 2.5 | 3 | 4.4 | 3 | 2.7 | 5.6 | 9.5 | 3.7 | 5.6 | 5.4 | 3.2 | 8 | N[C@H]1CC[C@H](Nc2nc(NNCCc3ccccc3)c3ncn(C4CCCC4)c3n2)CC1 [Example 35, 2-[Trans-(4-aminocyclohexyl)amino]-6-[2-phenethylhydrazino]-9-cyclopentylpurine dihydrochloride]
9 | 2.4 | 2.3 | 0.11 µM | 3.4 | 0.021 µM | 6.1 | 5.5 | 1.8 | 2.3 | 6.6 | 4.5 | 5.6 | 6 | 3.9 | 5.4 | 6.2 | 4.6 |  | N[C@H]1CC[C@H](Nc2nc(NCCCCCO)c3ncn(C4CCCC4)c3n2)CC1 [Example 25, 2-[Trans-(4-aminocyclohexyl)amino]-6-[5-(hydroxy)pentylamino]-9-cyclopentylpurine dihydrochloride]
10 | 2.2 | 3 | 0.3 µM and 0.5 µM | 2.4 | 0.069 µM and 0.046 µM | 1.8 | 1.6 | 1.7 |  | 1.9 | 1.7 | 2.4 | 3.2 | 1.6 | 3 | 2.6 |  | 3.7 | N[C@H]1CC[C@H](Nc2nc(NCc3cccs3)c3ncn(C4CCCC4)c3n2)CC1 [Example 17, 2-[Trans-(4-aminocyclohexyl)amino]-6-(2-thiophenemethylamino)-9-cyclopentylpurine dihydrochloride]
11 | 1.7 |  | 0.82 µM and 1.9 µM | 1.7 | 0.2 µM | 1.1 |  | 1.5 |  | 0.9 |  | 1.6 | 2.6 | 1.1 |  |  |  |  | CCCCCCNc1nc(N[C@H]2CC[C@H](N)CC2)nc2c1ncn2C1CCCC1 [Example 41, 2-[Trans-(4-aminocyclohexyl)amino]-6-(hexylamino)-9-cyclopentylpurine dihydrochloride]
